From BindingDB's records for doi:10.1021/jm051074u (Cephalon, 2007)

Biological target: Mitogen-activated protein kinase kinase kinase 10 (Homo sapiens, UniProt Q02779)
Assay: Mixed-Lineage Kinase Assays
Procedure: The MLK1, MLK2, and MLK3 assays were performed using the Millipore multiscreen trichloroacetic acid (TCA) in-plate format. IC50 values were calculated by nonlinear regression using the sigmoidal dose-response (variable slope) equation in GraphPad Prism.

Sequence of Mitogen-activated protein kinase kinase kinase 10 (Q02779 whole entry): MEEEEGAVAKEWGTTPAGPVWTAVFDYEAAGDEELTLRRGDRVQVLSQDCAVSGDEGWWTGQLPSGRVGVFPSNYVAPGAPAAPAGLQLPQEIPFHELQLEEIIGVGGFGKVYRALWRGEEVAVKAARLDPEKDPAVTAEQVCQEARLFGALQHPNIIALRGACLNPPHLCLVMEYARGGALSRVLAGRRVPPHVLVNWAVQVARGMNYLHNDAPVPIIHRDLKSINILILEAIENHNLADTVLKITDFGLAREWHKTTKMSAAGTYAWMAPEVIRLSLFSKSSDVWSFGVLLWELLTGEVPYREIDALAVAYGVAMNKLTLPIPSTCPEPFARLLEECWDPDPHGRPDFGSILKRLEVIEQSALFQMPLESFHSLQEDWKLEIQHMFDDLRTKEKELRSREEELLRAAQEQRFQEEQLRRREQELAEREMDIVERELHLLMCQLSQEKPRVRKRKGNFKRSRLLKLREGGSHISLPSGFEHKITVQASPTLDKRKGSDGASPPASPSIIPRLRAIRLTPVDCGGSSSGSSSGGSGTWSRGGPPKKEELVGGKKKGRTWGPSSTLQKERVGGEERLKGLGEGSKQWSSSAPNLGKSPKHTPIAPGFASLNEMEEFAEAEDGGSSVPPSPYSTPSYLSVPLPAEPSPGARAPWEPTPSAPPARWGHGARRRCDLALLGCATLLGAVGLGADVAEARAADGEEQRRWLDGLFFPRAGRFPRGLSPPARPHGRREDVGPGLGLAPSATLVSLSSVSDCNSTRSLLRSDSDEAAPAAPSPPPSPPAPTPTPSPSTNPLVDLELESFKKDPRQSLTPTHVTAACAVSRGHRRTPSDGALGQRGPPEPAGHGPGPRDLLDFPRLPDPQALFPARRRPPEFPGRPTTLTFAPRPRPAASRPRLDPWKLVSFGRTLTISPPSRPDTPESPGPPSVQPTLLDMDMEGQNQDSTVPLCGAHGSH

With COC(=O)[C@@]1(O)C[C@H]2O[C@]1(C)n1c3ccccc3c3c4c(c5c6ccccc6n2c5c31)C(=O)NC4 the IC50 was 45 nM.
